The record followed here is patent US4093796A, “Antibiotic derivatives of polyene macrolide group and method of obtaining the same” (Politechnika Gdanska, priority 1971, dated 1978).

≈ marks a conversion by molar mass, not a printed value.

System in the first data set: not given
Test: not given
Conditions: not given
In the case of `C[C@@H]1[C@H](O)[C@@H](C)/C=C/C=C/CC/C=C/C=C/C=C/C=C/[C@H](O[C@@H]2O[C@H](C)[C@@H](O)[C@H](NC3O[C@H](CO)[C@@H](O)[C@H](O)[C@H]3O)[C@@H]2O)C[C@@H]2O[C@](O)(C[C@@H](O)[C@H](O)CC[C@@H](O)C[C@@H](O)C[C@@H](O)CC(=O)O[C@H]1C)C[C@H](O)[C@H]2C(=O)[O-].[Na+]` (some centres unmarked), the “solubility / dispersion in water” value was “form true solutions free of colloids”. `C[C@@H]1[C@H](O)[C@@H](C)/C=C/C=C/CC/C=C/C=C/C=C/C=C/[C@H](O[C@@H]2O[C@H](C)[C@@H](O)[C@H](NC3O[C@H](CO)[C@@H](O[C@H]4O[C@H](CO)[C@@H](O)[C@H](O)[C@H]4O)[C@H](O)[C@H]3O)[C@@H]2O)C[C@@H]2O[C@](O)(C[C@@H](O)[C@H](O)CC[C@@H](O)C[C@@H](O)C[C@@H](O)CC(=O)O[C@H]1C)C[C@H](O)[C@H]2C(=O)[O-].[Na+]` (some centres unmarked): the “solubility / dispersion in water” value is given as “form true solutions free of colloids”.

In the next data set the test system is tested microorganisms. Nature of the data set: antimicrobial activity in liquid nutrient medium (serial dilution, turbidity). The data set is classed as cell-based. The note with it: 48 h. The protocol: (b) determination of the antimicrobial activity of antibiotics and their derivatives in liquid nutrient medium-- table 2.
The antimicrobial activity of antibiotics and their derivatives in liquid nutrient medium has been determined by making serial dilutions of antibiotics in the manner described above and by mixing of 0.5 ml of antibiotic solution with 4.5 ml of medium inoculated with tested microorganisms and prepared after Sabouraud without agar and with the addition of tarchocilin in the amount of 25 mg per 1 l. Solutions were allowed to stand for 48 hours at the temperature of 32° C.
Minimum concentration that inhibits the microorganisms growth has been determined on the basis of turbidity determined by extinction growth at […]; results are compared in table 2.
What is called MIC is the smallest concentration in the dilution series that meets the test's criterion for growth inhibition. Higher therefore signals a need for much substance. Turning to `CC1C=CC=CC=CC=CC=CC=CC=CC(OC2OC(C)C(O)C(N)C2O)CC2OC(O)(CC(O)CC(O)C(O)CCC(O)CC(O)CC(=O)OC(C)C(C)C1O)CC(O)C2C(=O)O` (centres unmarked) [amphotericin B], the lowest concentration to inhibit growth (MIC) was 0.05 mg/L (≈ 0.0541 µM). Same read-out and setting: the same measure for `COc1cc2c(c3oc(-c4ccccc4)cc(=O)c13)C=CC(C)(C)O2` [candidin]: 0.2 mg/L (≈ 0.598 µM); for `CC1C=CC=CCCC=CC=CC=CC=CC(OC2OC(C)C(O)C(N)C2O)CC2OC(O)(CC(O)C(O)CCC(O)CC(O)CC(O)CC(=O)OC(C)C(C)C1O)CC(O)C2C(=O)O` (centres unmarked) [nystatin A1]: 0.5 mg/L (≈ 0.54 µM). `C[C@@H]1C/C=C/C=C/C=C/C=C/[C@H](O[C@@H]2O[C@H](C)[C@@H](O)[C@H](N)[C@@H]2O)C[C@@H]2O[C@](O)(C[C@@H](O)C[C@H]3O[C@@H]3/C=C/C(=O)O1)C[C@H](O)[C@H]2C(=O)O` [pimaricin] yielded an MIC of 2.5 mg/L (≈ 3.76 µM).

The same data set, now with this note: liquid medium after Sabouraud without agar, 48 hours, 32° C, extinction at 660 mm.
For the molecule `C[C@@H]1[C@H](O)[C@@H](C)/C=C/C=C/CC/C=C/C=C/C=C/C=C/[C@H](O[C@@H]2O[C@H](C)[C@@H](O)[C@H](NC3O[C@H](CO)[C@@H](O)[C@H](O)[C@H]3O)[C@@H]2O)C[C@@H]2O[C@](O)(C[C@@H](O)[C@H](O)CC[C@@H](O)C[C@@H](O)C[C@@H](O)CC(=O)O[C@H]1C)C[C@H](O)[C@H]2C(=O)O` (some centres unmarked) [NGL nystatin A1], the MIC stood at 1.0 mg/L (≈ 0.919 µM). The same measure, in the same setting: the same measure for `C[C@@H]1[C@H](O)[C@@H](C)/C=C/C=C/C=C/C=C/C=C/C=C/C=C/[C@H](O[C@@H]2O[C@H](C)[C@@H](O)[C@H](N)[C@@H]2O)C[C@@H]2O[C@](O)(C[C@@H](O)[C@H](O)CC[C@@H](O)CC(=O)C[C@@H](O)CC(=O)O[C@H]1C)C[C@H](O)[C@H]2C(=O)O` [mycoheptin]: 2.5 mg/L (≈ 2.71 µM); for `CCC[C@@H]1C/C=C/C=C/C=C/C=C/[C@H](O[C@@H]2O[C@H](C)[C@@H](O)[C@H](N)[C@@H]2O)C[C@@H]2O[C@](O)(C[C@@H](O)CCCC(=O)C[C@@H](O)[C@H](CC)C(=O)O1)C[C@H](O)[C@H]2C(=O)O` [rimocidin]: 2.5 mg/L (≈ 3.26 µM).

candicidin came in with a minimal inhibitory concentration (MIC) of 0.001 mg/L. The same measure, in the same setting: the same measure for trichomycin: 0.001 mg/L.
